Columns and labels:
[1] = test system: post-partum mothers; assay: Depressive behaviors in post-partum mothers; assay type: in vivo; settings: MK-0677 treatment vs vehicle control (FIG. 1)
Excerpt: FIG. 1 is a graph depicting depressive behaviors in post-partum mothers. […] The data is shown in Figure, a bar graph depicting depressive behaviors in post-partum mothers in response to vehicle control of MK-0677 treatment. Experiments were designed to determine the effects of elevated ghrelin activity on the fetus.

[2] = test system: offspring; assay: Anhedonia (sucrose preference) in offspring after perinatal / in-womb exposure; assay type: in vivo
Excerpt: FIG. 2 is a diagram depicting the protocol for analysis of babies following birth. FIG. 3 depicts the design of the study with protocols involving vehicle control, low MK0677 or high MK0677 treatment. FIG. 4 is a graph depicting the effects of perinatal exposure to MK0677 on female (dark bar) versus male (lighter gray bar) offspring. V refers to a vehicle control. H refers to high MK0677 exposure levels. FIG. 5 is a graph depicting the effects of exposure to MK0677 in the womb on offspring. The first set of experiments was designed to determine the degree of anhedonia in offspring when raised by an MK-treated mom. Anhedonia is the inability of a subject to experience pleasure from activities usually found enjoyable. A first experiment was conducted to show the effects of perinatal exposure to MK0677 on female versus male offspring. V refers to a vehicle control. H refers to high MK0677 exposure levels. […] Additionally the foster mother had no effect. […] Another study involved determining the effects of exposure to MK0677 in the womb on offspring.

Structure (SMILES): CC(C)(N)C(=O)N[C@H](COCc1ccccc1)C(=O)N1CCC2(CC1)CN(S(C)(=O)=O)c1ccccc12 [MK-0677]
- maternal depressive behaviors [1]: enhanced maternal depressive behaviors
- sucrose preference in offspring ([2]; offspring from mothers exposed to high MK levels (n=11) vs controls (n=12), t-test, p=0.03 (FIG. 5)): significantly lower compared to controls
- degree of anhedonia in offspring: female versus male response ([2]; perinatal exposure, high MK0677 vs vehicle, female versus male offspring (FIG. 4)): no difference was seen between the response of male and female babies
- degree of anhedonia in offspring: foster versus biological mother ([2]; perinatal exposure, high MK0677 vs vehicle, foster mother had no effect (FIG. 4)): an influence was observed for the biological mother
- preference of sucrose solution to water (vs. 50%) ([2]; pups from MK mothers, pups from vehicle-treated mothers significantly preferred sucrose (p=0.046 vs. 50%)): did not

Source: patent US20160106821A1, “FUNCTIONAL GHRELIN RECEPTOR ANTAGONISM DURING PREGNANCY TO PREVENT STRESS-ASSOCIATED MENTAL ILLNESS IN OFFSPRING AND MOTHERS” (Massachusetts Institute of Technology, priority 2014, published 2016)
